Earlier results, collected in US7666858B2, “Pharmaceutical composition for treatment of phimosis using topical corticosteroid” (Apsen Farmaceutica S.A., priority 2000, dated 2010).

Key:
[1] = Lindhagen 1996

solubility in alcohol (alcohol) | solubility in water (water) | SMILES | success [1] [%]
partially alcohol-soluble | water-insoluble | C[C@H]1C[C@H]2[C@@H]3CCC4=CC(=O)C=C[C@]4(C)[C@@]3(F)[C@@H](O)C[C@]2(C)[C@@]1(O)C(=O)CO [Betamethasone] | –
– | – | CCC(=O)O[C@]1(C(=O)CCl)[C@@H](C)C[C@H]2[C@@H]3CCC4=CC(=O)C=C[C@]4(C)[C@@]3(F)[C@@H](O)C[C@@]21C [clobetasol propionate] | 70
